Laboratory results reported in patent US12630509B2, “Heterocyclic NMDA antagonists” (TAKEDA PHARMACEUTICAL COMPANY LIMITED, priority 2019, dated 2026).

Target: NMDA receptor composed of four subunits including two sets of heterodimers of NR1 and NR2B (GRIN1/GRIN2B) expressed in HEK 293 cells (Homo sapiens, UniProt Q13224)
Experiment: NR2B Ca2+ influx assay
Format: cell-based
Settings: HEK293, final concentration 10 μM; glutamic acid and glycine induced Ca2+ influx, HEK 293 cells expressing human GRIN1 and GRIN2B; read-out: % inhibited(10 μM)
Protocol: The HEK 293 cells that express GRIN1 and GRIN2B were purchased from ChanTest (human NMDA (NR1/NR2B) receptor-expressing, stable replicating cell line (HEK 293) catalog no. CT6121).
Intracellular calcium-ion (Ca^2+) influx caused by glycine and glutamic acid respectively binding to NR1 and NR2B was used as an index of NMDA receptor activation.
The HEK 293 cells expressing GRIN1 and GRIN2B were cultured in a cell culture flask in an incubator (37° C., in 5% CO2) using a DMEM/F-12 (Cosmo Bio, 10-092-CM) medium supplemented with 10% FBS (fetal bovine serum, AusGene), 100 units/mL penicillin, 100 μg/mL streptomycin, 500 μg/mL neomycin, 100 μg/mL Zeocin (registered trademark of Invitrogen), and 5 μg/mL blasticidin.
On the day before the assay, the cells were detached from the flask by trypsinization, suspended in a seeding medium (DMEM (Invitrogen, 31053) supplemented with 10% FBS, 100 units/mL penicillin, and 100 μg/mL streptomycin) so as to be 8×10^5 cells/mL, seeded at 25 μL per well in a 384-well plate (Falcon, 356663) so as to be 20,000 cells/well, and cultured overnight using the incubator. On the day of the assay, tetracycline (Wako Pure Chemical, 209-16561) was diluted with the seeding medium at 2 μg/mL, and added at 25 μL/well to the plate into which the cells were seeded, and this was cultured for 2 hours in the incubator. Afterward, the medium was removed and washed with an assay buffer (137 mM NaCl, 4 mM KCl, 1.8 mM CaCl2), 10 mM HEPES (pH 7.2), 10 mM glucose, 0.1% BSA) at 50 μL/well. Next, a loading buffer (buffer wherein 2.5 μM Fluo-4 AM, 2 mM amaranth, and 1 mM tartrazine are added to the assay buffer) was added at 25 μL/well, and this was incubated in the incubator for 30 minutes and for 15 minutes at room temperature. Solutions wherein the Example compounds were diluted with the above-mentioned assay buffer so as to be 30 μM (final concentration 10 μM) were added at 25 μL/well, and these were left standing for 15 minutes at room temperature. Using FDSS7000EX/μCELL (Hamamatsu Photonics), an assay buffer including 30 μM glutamic acid and 30 μM glycine was added at 25 μL/well, and a fluorescence signal of an Excitation wavelength of 480 nm and an Emission wavelength of 540 nm was measured every 3 seconds for 5 minutes. The inhibitory activity was calculated as a relative activity value (inhibitory rate) wherein relative to an integrated value of florescence values of each well, an integrated value of fluorescence values of a well into which an assay buffer without glutamic acid and glycine was defined as 100% inhibition.

Sequence of NMDA receptor composed of four subunits including two sets of heterodimers of NR1 and NR2B (GRIN1/GRIN2B) expressed in HEK 293 cells (Q13224 27-1484, other chains not shown): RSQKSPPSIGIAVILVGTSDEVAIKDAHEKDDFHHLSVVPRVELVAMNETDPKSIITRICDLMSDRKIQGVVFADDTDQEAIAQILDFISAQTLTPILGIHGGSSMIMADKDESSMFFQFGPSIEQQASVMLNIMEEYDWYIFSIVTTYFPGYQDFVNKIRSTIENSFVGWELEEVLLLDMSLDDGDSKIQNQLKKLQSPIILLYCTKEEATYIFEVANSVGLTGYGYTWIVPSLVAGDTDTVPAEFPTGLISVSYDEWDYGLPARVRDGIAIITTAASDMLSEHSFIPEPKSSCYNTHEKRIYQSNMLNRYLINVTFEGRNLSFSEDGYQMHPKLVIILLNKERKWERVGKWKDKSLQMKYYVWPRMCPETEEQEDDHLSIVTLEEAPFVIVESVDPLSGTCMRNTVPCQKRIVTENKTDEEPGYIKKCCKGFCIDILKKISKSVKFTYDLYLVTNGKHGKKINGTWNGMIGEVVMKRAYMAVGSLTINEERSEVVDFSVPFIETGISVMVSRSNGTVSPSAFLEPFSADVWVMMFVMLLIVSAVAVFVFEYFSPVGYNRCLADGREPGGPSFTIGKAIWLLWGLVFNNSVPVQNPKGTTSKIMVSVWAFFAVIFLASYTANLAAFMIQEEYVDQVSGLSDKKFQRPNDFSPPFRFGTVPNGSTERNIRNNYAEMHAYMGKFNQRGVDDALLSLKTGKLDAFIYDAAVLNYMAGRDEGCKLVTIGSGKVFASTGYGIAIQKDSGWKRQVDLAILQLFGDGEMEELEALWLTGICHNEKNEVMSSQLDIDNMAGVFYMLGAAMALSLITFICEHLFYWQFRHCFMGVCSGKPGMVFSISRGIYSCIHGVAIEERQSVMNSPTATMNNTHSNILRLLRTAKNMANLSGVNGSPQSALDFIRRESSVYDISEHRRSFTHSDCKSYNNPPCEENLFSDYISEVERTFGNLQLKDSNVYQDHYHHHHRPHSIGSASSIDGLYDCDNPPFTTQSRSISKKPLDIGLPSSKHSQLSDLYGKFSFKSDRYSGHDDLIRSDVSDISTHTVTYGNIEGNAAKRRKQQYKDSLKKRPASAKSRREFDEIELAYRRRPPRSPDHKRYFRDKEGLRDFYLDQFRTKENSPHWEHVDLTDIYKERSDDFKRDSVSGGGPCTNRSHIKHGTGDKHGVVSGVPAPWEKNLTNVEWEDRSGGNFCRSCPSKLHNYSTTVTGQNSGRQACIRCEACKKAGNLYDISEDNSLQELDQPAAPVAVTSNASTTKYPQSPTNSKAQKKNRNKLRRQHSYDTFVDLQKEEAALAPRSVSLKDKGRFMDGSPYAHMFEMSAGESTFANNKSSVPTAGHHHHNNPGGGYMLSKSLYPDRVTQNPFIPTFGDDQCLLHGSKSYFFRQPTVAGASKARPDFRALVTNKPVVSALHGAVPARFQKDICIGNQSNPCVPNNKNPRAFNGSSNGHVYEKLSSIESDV

Structure (SMILES)	inhibition at 10 µM [%]
Cc1ccc(Oc2ccc(CN3C(=O)OCC3CF)cn2)c(F)c1 (centres unmarked) [Example 39, 4-(fluoromethyl)-3-{[6-(2-fluoro-4-methylphenoxy)pyridin-3-yl]methyl}-1,3-oxazolidin-2-one]	92
Cc1ccc(Oc2ccc(CN3C(=O)C[C@H](O)[C@@H]3C)cn2)cc1 [Example 13, (4S,5S)-4-hydroxy-5-methyl-1-{[6-(4-methylphenoxy)pyridin-3-yl]methyl}pyrrolidin-2-one]	97
C[C@H]1[C@@H](O)CC(=O)N1Cc1ccc(Oc2ccc(F)cc2F)nc1 [Example 37, (4S,5S)-1{[-6-(2,4-difluorophenoxy)pyridin-3-yl]methyl}-4-hydroxy-5-methylpyrrolidin-2-one]	97
Cc1ccc(Oc2ccc(CN3C(=O)C[C@H](O)[C@H]3C)cc2)cc1 [Example 11, (4S,5R)-4-hydroxy-5-methyl-1-{[4-(4-methylphenoxy)pheny]methyl}pyrrolidin-2-one]	91
C[C@H]1[C@@H](O)C(F)(F)C(=O)N1Cc1ccc(Oc2ccc(F)cc2F)nc1 [Example 36, (4R,5S)-1-{[6-(2,4-difluorophenoxy)pyridin-3-yl]methyl}-3,3-difluoro-4-hydroxy-5-methylpyrrolidin-2-one]	97
Cc1ccc(Oc2ccc(CN3C(=O)C[C@H](O)[C@@H]3C)cc2)cc1 [Example 6, (4S,5S)-4-hydroxy-5-methyl-1-{[4-(4-methylphenoxy)phenyl]methyl}pyrrolidin-2-one]	97
C[C@H]1CCC(=O)N1Cc1ccc(Oc2ccc(C(F)F)cc2F)nc1 [Example 47, (5S)-1-({6-[4-(difluoromethy)-2-fluorophenoxy]pyridin-3-yl}methyl)-5-methylpyrrolidin-2-one]	99
Cc1cc(F)c(Oc2ccc(CN3C(=O)C[C@H](O)[C@@H]3C)cn2)c(F)c1 [Example 31, (4S,5S)-1{[-6-(2,6-difluoro-4-methylphenoxy)pyridin-3-yl]methyl}4-hydroxy-5-methylpyrrolidin-2-one]	97
Cc1ccc(Oc2ncc(CN3C(=O)OC[C@@H]3C)cn2)c(F)c1 [Example 23, (4S)-3-{[2-(2-fluoro-4-methylphenoxy)pyrimidin-5-yl]methyl}-4-methyl-1,3-oxazolidin-2-one]	94
C[C@H]1CCC(=O)N1Cc1cnc(Oc2ccc(C(F)F)cc2F)nc1 [Example 42, (5S)-1-({2-[4-(difluoromethyl)-2-fluorophenoxy]pyrimidin-5-yl}methyl)-5-methylpyrrolidin-2-one]	97
C[C@H]1[C@@H](O)CC(=O)N1Cc1ccc(Oc2c(F)cc(F)cc2F)nc1 [Example 27, (4S,5S)-4-hydroxy-5-methyl-1-{[6-(2,4,6-trifluorophenoxy)pyridin-3-yl]methyl}pyrrolidin-2-one]	97
Cc1ccc(Oc2ncc(CN3C(=O)OC[C@@H]3C)cn2)cc1 [Example 30, (4S)-4-methyl-3-{[2-(4-methylphenoxy)pyrimidin-5-yl]methyl}-1,3-oxazolidin-2-one]	90
Cc1ccc(Oc2ncc(CN3C(=O)CC[C@@H]3C)cn2)c(F)c1 [Example 44, (5S)-1-{[2-(2-fluoro-4-methylphenoxy)pyrimidin-5-yl]methyl}-5-methylpyrrolidin-2-one]	97
Cc1ccc(Oc2cnc(CN3C(=O)CCC3C)nc2)cc1 (centres unmarked) [Example 8, 5-methyl-1{[5-(4-methylphenoxy)pyrimidin-2-yl]methyl}pyrrolidin-2-one]	53
Cc1ccc(Oc2cnc(CN3C(=O)C[C@H](O)[C@@H]3C)cn2)cc1 [Example 19, (4S,5S)-4-hydroxy-5-methyl-1-{[5-(4-methylphenoxy)pyrazin-2-yl]methyl}pyrrolidin-2-one]	82
C[C@H]1COC(=O)N1Cc1cnc(Oc2c(F)cc(F)cc2F)nc1 [Example 24, (4S)-4-methyl-3-{[2-(2,4,6-trifluorophenoxy)pyrimidin-5-yl]methyl}-1,3-oxazolidin-2-one]	93

Structure (SMILES)	inhibition at 10 µM [%]
Cc1ccc(Oc2ncc(CN3C(=O)CC[C@@H]3C)cn2)cc1 [Example 22, (5S)-5-methyl-1-{[2-(4-methylphenoxy)pyrimidin-5-yl]methyl}pyrrolidin-2-one]	95
C[C@H]1CNC(=O)N1Cc1ccc(Oc2c(F)cc(F)cc2F)nc1 [Example 33, (5S)-5-methyl-1-{[6-(2,4,6-trifluorophenoxy)pyridin-3-yl]methyl}imidazolidin-2-one]	97
Cc1ccc(Oc2ccc(CN3C(=O)CC[C@@H]3C)cn2)cc1 [Example 21, (5S)-5-methyl-1-{[6-(4-methylphenoxy)pyridin-3-yl]methyl}pyrrolidin-2-one]	98
Cc1ccc(Oc2ncc(CN3C(=O)C[C@H](O)[C@@H]3C)cn2)cc1 [Example 15, (4S,5S)-4-hydroxy-5-methyl-1-{[2-(4-methylphenoxy)pyrimidin-5-yl]methyl}pyrrolidin-2-one]	90
Cc1ccc(Oc2ccc(CN3C(=O)CCC3C(F)(F)F)cn2)cc1 (centres unmarked) [Example 29, 1-{[6-(4-methylphenoxy)pyridin-3-yl]methyl}-5-(trifluoromethyl)pyrrolidin-2-one]	93
Cc1ccc(Oc2ccc(CN3C(=O)OCC3C(F)F)cn2)c(F)c1 (centres unmarked) [Example 40, 4-(difluoromethyl)-3-{[6-(2-fluoro-4-methylphenoxy)pyridin-3-yl]methyl}-1,3-oxazolidin-2-one]	95
C[C@H]1[C@@H](O)CC(=O)N1Cc1ccc(Oc2ccc(C(F)(F)F)cc2F)nc1 [Example 41, (4S,5S)-1-({6-[2-fluoro-4-(trifluoromethyl)phenoxy]pyridin-3-yl}methyl)-4-hydroxy-5-methylpyrrolidin-2-one]	95
C[C@H]1CCC(=O)N1Cc1ccc(Oc2ccc(F)cc2F)nc1 [Example 48, (5S)-1-{[6-(2,4-difluorophenoxy)pyridin-3-yl]methyl}-5-methylpyrrolidin-2-one]	98
Cc1ccc(Oc2ccc(CN3C(=O)C[C@H](O)[C@@H]3C)cn2)c(F)c1 [Example 26, (4S,5S)-1-{[6-(2-fluoro-4-methylphenoxy)pyridin-3-yl]methyl}-4-hydroxy-5-methylpyrrolidin-2-one]	97
CC[C@H]1[C@@H](O)CC(=O)N1Cc1ccc(Oc2ccc(C)cc2)cc1 [Example 7, (4S,5S)-5-ethyl-4-hydroxy-1-{[4-(4-methylphenoxy)phenyl]methyl}pyrrolidin-2-one]	98
Cc1cc(F)c(Oc2ncc(CN3C(=O)OC[C@@H]3C)cn2)c(F)c1 [Example 32, (4S)-3-{[2-(2,6-difluoro-4-methylphenoxy)pyrimidin-5-yl]methyl}-4-methyl-1,3-oxazolidin-2-one]	92
Cc1ccc(Oc2ccc(CN3C(=O)OC[C@@H]3C)cc2)cc1 [Example 18, (4S)-4-methy-3-{[4-(4-methylphenoxy)phenyl]methyl}1,3-oxazolidin-2-one]	98
Cc1ccc(Oc2ccc(CN3C(=O)CCC3C)cc2)cc1 (centres unmarked) [Example 1, 5-methyl-1-{[4-(4-methylphenoxy)phenyl]methyl}pyrrolidin-2-one]	99
Cc1ccc(Oc2ccc(CN3C(=O)OC[C@@H]3C)cn2)cc1 [Example 20, (4S)-4-methyl-3-{[6-(4-methylphenoxy)pyridin-3-yl]methyl}-1,3-oxazolidin-2-one]	97
C[C@H]1COC(=O)N1Cc1ccc(Oc2ccc(C(F)F)cc2F)nc1 [Example 50, (4S)-3-({6-[4-(difluoromethyl)-2-fluorophenoxy]pyridin-3-yl}methyl)-4-methyl-1,3-oxazolidin-2-one]	98

Same assay, conditions: final concentration 10 μM; glutamic acid and glycine induced Ca2+ influx, HEK 293 cells expressing human GRIN1 and GRIN2B; 10 µM

Structure (SMILES)	% inhibited(10 μM) [%]
Cc1ccc(Oc2ccc(CN3C(=O)CCC3C)cc2)cc1 (single isomer, unassigned) [Example 3, 5-methyl-1-{[4-(4-methylphenoxy)phenyl]methyl}pyrrolidin-2-one (optical isomer)]	99
